# Experimental data published in publication PMC2990605 (British Journal of Cancer, 2010).
# Assay: Adverse events (CTCAEv3.0), worst grade per patient regardless of relation, and laboratory parameters
# Type: in vivo
# Conditions: human, in vivo
# Method: Toxicity was evaluated according to common toxicity criteria for adverse events (CTCAEv3.0). The MTD was defined as the dose level(s) at which at least two out of six patients developed DLT.
# Toxicity assessment, haematology and clinical biochemistry were performed at baseline and weekly during the study. Physical and ECOG performance status were recorded at baseline and before the next cycle.
smiles,measurement,setting,value
CC(C)C[C@@H](C(=O)N[C@H](C(=O)OC1CCCC1)c1ccccc1)[C@H](O)C(=O)NO [tosedostat],"Pollakiuria, patients with events, %",,5%
same,"Pruritus, CTCAE grade 1, patients",,5
same,"Pruritus, CTCAE grade 2, patients",,0
same,"Pruritus, CTCAE grade 3, patients",,1
same,"Pruritus, CTCAE grade 4, patients",,0
same,"Pruritus, patients with events, %",,27%
same,"Pulmonary embolism, CTCAE grade 1, patients",,0
same,"Pulmonary embolism, CTCAE grade 2, patients",,0
same,"Pulmonary embolism, CTCAE grade 4, patients",,0
same,"Pyrexia, CTCAE grade 1, patients",,4
same,"Pyrexia, CTCAE grade 2, patients",,2
same,"Pyrexia, CTCAE grade 3, patients",,0
same,"Pyrexia, CTCAE grade 4, patients",,0
same,"Pyrexia, patients with events, %",,27%
same,"Rash, CTCAE grade 1, patients",,9
same,"Rash, CTCAE grade 2, patients",,1
same,"Rash, CTCAE grade 3, patients",,2
same,"Rash, CTCAE grade 4, patients",,0
same,"Rash, patients with events, %",,55%
same,"Renal and urinary disorders, patients with events, %",,23%
same,"Respiratory, thoracic and mediastinal disorders, patients with events, %",,73%
same,SAEs considered disease-related,,13
same,"SAEs reported, total number",,19
same,"Skin and subcutaneous tissue disorders, patients with events, %",,100%
same,"Spinal cord compression, CTCAE grade 1, patients",,0
same,"Spinal cord compression, CTCAE grade 2, patients",,0
same,"Spinal cord compression, CTCAE grade 3, patients",,1
same,"Spinal cord compression, CTCAE grade 4, patients",,0
same,"Spinal cord compression, patients with events, %",,5%
same,"Tumour pain, CTCAE grade 1, patients",,0
same,"Tumour pain, CTCAE grade 2, patients",,1
same,"Tumour pain, CTCAE grade 3, patients",,2
same,"Tumour pain, CTCAE grade 4, patients",,0
same,"Tumour pain, patients with events, %",,14%
same,"Urinary tract infection, CTCAE grade 1, patients",,0
same,"Urinary tract infection, CTCAE grade 2, patients",,1
same,"Urinary tract infection, CTCAE grade 3, patients",,1
same,"Urinary tract infection, CTCAE grade 4, patients",,0
same,"Urinary tract infection, patients with events, %",,9%
same,"Vomiting, CTCAE grade 1, patients",,3
same,"Vomiting, CTCAE grade 2, patients",,2
same,"Vomiting, CTCAE grade 3, patients",,0
same,"Vomiting, CTCAE grade 4, patients",,0
same,"Vomiting, patients with events, %",,23%
same,drug-related adverse event: alopecia,,95%
same,drug-related adverse event: fatigue,,95%
same,drug-related adverse event: peripheral sensory neuropathy,,59%
same,drug-related adverse event: rash,,55%
same,"incidence and severity of neutropenia/leukopenia, anaemia, myalgia and nausea/vomiting",,not increased relative to paclitaxel alone
same,"nadir of median haemoglobin, WBC, neutrophils and lymphocytes in each cycle",,15 days
same,nadir of median platelets in each cycle,,8 days
same,patients with SAEs,,12
same,"γ-glutamyltransferase increased, CTCAE grade 1, patients",,0
same,"γ-glutamyltransferase increased, CTCAE grade 2, patients",,1
same,"γ-glutamyltransferase increased, CTCAE grade 3, patients",,1
same,"γ-glutamyltransferase increased, CTCAE grade 4, patients",,0
same,"γ-glutamyltransferase increased, patients with events, %",,9%
same,"Alanine aminotransferase increased, CTCAE grade 1, patients",21 days,1
same,"Alanine aminotransferase increased, CTCAE grade 2, patients",21 days,2
same,"Alanine aminotransferase increased, CTCAE grade 3, patients",21 days,0
same,"Alanine aminotransferase increased, CTCAE grade 4, patients",21 days,0
same,"Alanine aminotransferase increased, patients with events, %",21 days,14%
same,"Alopecia, CTCAE grade 2, patients",21 days,8
same,"Alopecia, CTCAE grade 3, patients",21 days,0
same,"Alopecia, CTCAE grade 4, patients",21 days,0
same,"Alopecia, patients with events, %",21 days,68%
same,"Anorexia, CTCAE grade 1, patients",21 days,4
same,"Anorexia, CTCAE grade 2, patients",21 days,0
same,"Anorexia, CTCAE grade 3, patients",21 days,0
same,"Anorexia, CTCAE grade 4, patients",21 days,0
same,"Anorexia, patients with events, %",21 days,18%
same,"Arthralgia, CTCAE grade 1, patients",21 days,5
same,"Arthralgia, CTCAE grade 2, patients",21 days,0
same,"Arthralgia, CTCAE grade 3, patients",21 days,0
same,"Arthralgia, CTCAE grade 4, patients",21 days,0
same,"Arthralgia, patients with events, %",21 days,23%
same,"Back pain, CTCAE grade 1, patients",21 days,2
same,"Back pain, CTCAE grade 2, patients",21 days,0
same,"Back pain, CTCAE grade 3, patients",21 days,0
same,"Back pain, CTCAE grade 4, patients",21 days,0
same,"Back pain, patients with events, %",21 days,9%
same,"Blood bilirubin, CTCAE grade 1, patients",21 days,0
same,"Blood bilirubin, CTCAE grade 2, patients",21 days,0
same,"Blood bilirubin, CTCAE grade 3, patients",21 days,0
same,"Blood bilirubin, CTCAE grade 4, patients",21 days,0
same,"Blood bilirubin, patients with events, %",21 days,0%
same,"Bronchitis, CTCAE grade 1, patients",21 days,0
same,"Bronchitis, CTCAE grade 2, patients",21 days,0
same,"Bronchitis, CTCAE grade 3, patients",21 days,0
same,"Bronchitis, CTCAE grade 4, patients",21 days,0
same,"Bronchitis, patients with events, %",21 days,0%
same,"Constipation, CTCAE grade 1, patients",21 days,3
same,"Constipation, CTCAE grade 2, patients",21 days,1
same,"Constipation, CTCAE grade 3, patients",21 days,0
same,"Constipation, CTCAE grade 4, patients",21 days,0
same,"Constipation, patients with events, %",21 days,18%
same,"Cough, CTCAE grade 1, patients",21 days,5
same,"Cough, CTCAE grade 2, patients",21 days,0
same,"Cough, CTCAE grade 3, patients",21 days,0
same,"Cough, CTCAE grade 4, patients",21 days,0
same,"Cough, patients with events, %",21 days,23%
same,"Cystitis, CTCAE grade 1, patients",21 days,0
same,"Cystitis, CTCAE grade 2, patients",21 days,0
same,"Cystitis, CTCAE grade 3, patients",21 days,0
same,"Cystitis, CTCAE grade 4, patients",21 days,0
same,"Cystitis, patients with events, %",21 days,0%
same,"Dehydration, CTCAE grade 1, patients",21 days,0
same,"Dehydration, CTCAE grade 2, patients",21 days,0
same,"Dehydration, CTCAE grade 3, patients",21 days,1
same,"Dehydration, CTCAE grade 4, patients",21 days,0
same,"Dehydration, patients with events, %",21 days,5%
same,"Diabetes mellitus, CTCAE grade 1, patients",21 days,0
same,"Diabetes mellitus, CTCAE grade 2, patients",21 days,0
same,"Diabetes mellitus, CTCAE grade 3, patients",21 days,1
same,"Diabetes mellitus, CTCAE grade 4, patients",21 days,0
same,"Diabetes mellitus, patients with events, %",21 days,5%
same,"Diarrhoea, CTCAE grade 1, patients",21 days,2
same,"Diarrhoea, CTCAE grade 2, patients",21 days,0
same,"Diarrhoea, CTCAE grade 3, patients",21 days,0
same,"Diarrhoea, CTCAE grade 4, patients",21 days,0
same,"Diarrhoea, patients with events, %",21 days,9%
same,"Dizziness, CTCAE grade 1, patients",21 days,4
same,"Dizziness, CTCAE grade 2, patients",21 days,1
same,"Dizziness, CTCAE grade 3, patients",21 days,0
same,"Dizziness, CTCAE grade 4, patients",21 days,0
same,"Dizziness, patients with events, %",21 days,23%
same,"Drug hypersensitivity, CTCAE grade 1, patients",21 days,0
same,"Drug hypersensitivity, CTCAE grade 2, patients",21 days,0
same,"Drug hypersensitivity, CTCAE grade 3, patients",21 days,0
same,"Drug hypersensitivity, CTCAE grade 4, patients",21 days,0
same,"Drug hypersensitivity, patients with events, %",21 days,0%
same,"Dry skin, CTCAE grade 1, patients",21 days,0
same,"Dry skin, CTCAE grade 2, patients",21 days,0
same,"Dry skin, CTCAE grade 3, patients",21 days,1
same,"Dry skin, CTCAE grade 4, patients",21 days,0
same,"Dry skin, patients with events, %",21 days,5%
